Assay results reported in ChEMBL document CHEMBL4011590, “Structure-activity relationship studies on 3,5-dinitrophenyl tetrazoles as antitubercular agents” (Eur J Med Chem, 2017).

What was measured:
[1] = test system: Mycobacterium tuberculosis; assay: Antimycobacterial activity against Mycobacterium tuberculosis H37Rv CNCTC My 331/88 after 14 days by micromethod; type: functional; conditions: H37Rv CNCTC My 331/88, 336 h
[2] = test system: Mycobacterium tuberculosis; assay: Antimycobacterial activity against Mycobacterium tuberculosis H37Rv CNCTC My 331/88 after 21 days by micromethod; type: functional; conditions: H37Rv CNCTC My 331/88, 504 h
Mycobacterium avium [3] = assay: Antimycobacterial activity against Mycobacterium avium CNCTC My 330/80 after 14 days by micromethod; type: functional; conditions: CNCTC My 330/80, 336 h
Mycobacterium avium [4] = assay: Antimycobacterial activity against Mycobacterium avium CNCTC My 330/80 after 21 days by micromethod; type: functional; conditions: CNCTC My 330/80, 504 h
Mycobacterium kansasii [5] = assay: Antimycobacterial activity against Mycobacterium kansasii CNCTC My 235/80 after 7 days by micromethod; type: functional; conditions: CNCTC My 235/80, 168 h
Mycobacterium kansasii [6] = assay: Antimycobacterial activity against Mycobacterium kansasii CNCTC My 235/80 after 14 days by micromethod; type: functional; conditions: CNCTC My 235/80, 336 h
Mycobacterium kansasii [7] = assay: Antimycobacterial activity against Mycobacterium kansasii CNCTC My 235/80 after 21 days by micromethod; type: functional; conditions: CNCTC My 235/80, 504 h
Mycobacterium kansasii [8] = assay: Antimycobacterial activity against Mycobacterium kansasii isolate 6509/96 after 7 days by micromethod; type: functional; conditions: isolate 6509/96, 168 h
Mycobacterium kansasii [9] = assay: Antimycobacterial activity against Mycobacterium kansasii isolate 6509/96 after 14 days by micromethod; type: functional; conditions: isolate 6509/96, 336 h
Mycobacterium kansasii [10] = assay: Antimycobacterial activity against Mycobacterium kansasii isolate 6509/96 after 21 days by micromethod; type: functional; conditions: isolate 6509/96, 504 h
CHO-K1 = assay: Cytotoxicity against CHOK1 cells after 24 hrs by MTT assay; type: cell-based; conditions: Cricetulus griseus, CHO-K1, 24 h
HaCaT = assay: Cytotoxicity against human HaCaT cells after 72 hrs by neutral red uptake assay; type: cell-based
Staphylococcus aureus [11] = assay: Antibacterial activity against Staphylococcus aureus ATCC 6538 after 24 hrs by broth microdilution method; type: functional; conditions: ATCC 6538, 24 h
Staphylococcus aureus [12] = assay: Antibacterial activity against Staphylococcus aureus ATCC 6538 after 48 hrs by broth microdilution method; type: functional; conditions: ATCC 6538, 48 h
Staphylococcus aureus [13] = assay: Antibacterial activity against methicillin-resistant Staphylococcus aureus HK5996/08 after 24 hrs by broth microdilution method; type: functional; conditions: HK5996/08, 24 h
Staphylococcus aureus [14] = assay: Antibacterial activity against methicillin-resistant Staphylococcus aureus HK5996/08 after 48 hrs by broth microdilution method; type: functional; conditions: HK5996/08, 48 h
Enterococcus sp. [15] = assay: Antibacterial activity against Enterococcus sp. HK14365/08 after 24 hrs by broth microdilution method; type: functional; conditions: HK14365/08, 24 h
Enterococcus sp. [16] = assay: Antibacterial activity against Enterococcus sp. HK14365/08 after 48 hrs by broth microdilution method; type: functional; conditions: HK14365/08, 48 h
Escherichia coli [17] = assay: Antibacterial activity against Escherichia coli ATCC 8739 after 24 hrs by broth microdilution method; type: functional; conditions: ATCC 8739, 24 h
Escherichia coli [18] = assay: Antibacterial activity against Escherichia coli ATCC 8739 after 48 hrs by broth microdilution method; type: functional; conditions: ATCC 8739, 48 h
Klebsiella pneumoniae [19] = assay: Antibacterial activity against Klebsiella pneumoniae HK11750/08 after 24 hrs by broth microdilution method; type: functional; conditions: HK11750/08, 24 h
Klebsiella pneumoniae [20] = assay: Antibacterial activity against Klebsiella pneumoniae HK11750/08 after 48 hrs by broth microdilution method; type: functional; conditions: HK11750/08, 48 h
Klebsiella pneumoniae [21] = assay: Antibacterial activity against extended spectrum beta-lactamase producing Klebsiella pneumoniae HK14368/08 after 24 hrs by broth microdilution method; type: functional; conditions: HK14368/08, 24 h
Klebsiella pneumoniae [22] = assay: Antibacterial activity against extended spectrum beta-lactamase producing Klebsiella pneumoniae HK14368/08 after 48 hrs by broth microdilution method; type: functional; conditions: HK14368/08, 48 h
Pseudomonas aeruginosa [23] = assay: Antibacterial activity against Pseudomonas aeruginosa ATCC 9027 after 24 hrs by broth microdilution method; type: functional; conditions: ATCC 9027, 24 h
Pseudomonas aeruginosa [24] = assay: Antibacterial activity against Pseudomonas aeruginosa ATCC 9027 after 48 hrs by broth microdilution method; type: functional; conditions: ATCC 9027, 48 h
Candida albicans [25] = assay: Antifungal activity against Candida albicans ATCC 44859 after 24 hrs by broth microdilution method; type: functional; conditions: ATCC 44859, 24 h
Candida albicans [26] = assay: Antifungal activity against Candida albicans ATCC 44859 after 48 hrs by broth microdilution method; type: functional; conditions: ATCC 44859, 48 h
Candida tropicalis [27] = assay: Antifungal activity against Candida tropicalis 156 after 24 hrs by broth microdilution method; type: functional; conditions: Candida tropicalis, 156, 24 h
Candida tropicalis [28] = assay: Antifungal activity against Candida tropicalis 156 after 48 hrs by broth microdilution method; type: functional; conditions: Candida tropicalis, 156, 48 h
Pichia kudriavzevii [29] = assay: Antifungal activity against Candida krusei E28 after 24 hrs by broth microdilution method; type: functional; conditions: E28, 24 h
Pichia kudriavzevii [30] = assay: Antifungal activity against Candida krusei E28 after 48 hrs by broth microdilution method; type: functional; conditions: E28, 48 h
Nakaseomyces glabratus [31] = assay: Antifungal activity against Candida glabrata 20/I after 24 hrs by broth microdilution method; type: functional
Nakaseomyces glabratus [32] = assay: Antifungal activity against Candida glabrata 20/I after 48 hrs by broth microdilution method; type: functional
Trichosporon asahii [33] = assay: Antifungal activity against Trichosporon asahii 1188 after 24 hrs by broth microdilution method; type: functional; conditions: Trichosporon asahii, 1188, 24 h
Trichosporon asahii [34] = assay: Antifungal activity against Trichosporon asahii 1188 after 48 hrs by broth microdilution method; type: functional; conditions: Trichosporon asahii, 1188, 48 h
Aspergillus fumigatus [35] = assay: Antifungal activity against Aspergillus fumigatus 231 after 24 hrs by broth microdilution method; type: functional; conditions: Aspergillus fumigatus, 231, 24 h
Aspergillus fumigatus [36] = assay: Antifungal activity against Aspergillus fumigatus 231 after 48 hrs by broth microdilution method; type: functional; conditions: Aspergillus fumigatus, 231, 48 h
Lichtheimia corymbifera [37] = assay: Antifungal activity against Absidia corymbifera 272 after 24 hrs by broth microdilution method; type: functional; conditions: Lichtheimia corymbifera, 272, 24 h
Lichtheimia corymbifera [38] = assay: Antifungal activity against Absidia corymbifera 272 after 48 hrs by broth microdilution method; type: functional; conditions: Lichtheimia corymbifera, 272, 48 h
[39] = test system: Trichophyton mentagrophytes; assay: Antifungal activity against Trichophyton mentagrophytes 445 after 72 hrs by broth microdilution method; type: functional; conditions: Trichophyton mentagrophytes, 445, 72 h
[40] = test system: Trichophyton mentagrophytes; assay: Antifungal activity against Trichophyton mentagrophytes 445 after 120 hrs by broth microdilution method; type: functional; conditions: Trichophyton mentagrophytes, 445, 120 h
[41] = Selectivity index, ratio of IC50 for CHOK1 cells to MIC for Mycobacterium tuberculosis H37Rv CNCTC My 331/88; type: toxicity; conditions: hamster, CHO-K1 cells; read-out: Selectivity Index
[42] = Selectivity index, ratio of IC50 for mouse 3T3 cells to MIC for Mycobacterium tuberculosis H37Rv CNCTC My 331/88; type: toxicity; conditions: read-out: Selectivity Index
[43] = Selectivity index, ratio of IC50 for human HaCaT cells to MIC for Mycobacterium tuberculosis H37Rv CNCTC My 331/88; type: toxicity; conditions: read-out: Selectivity Index
[44] = test system: Staphylococcus epidermidis; assay: Antibacterial activity against Staphylococcus epidermidis HK6966/08 after 24 hrs by broth microdilution method; type: functional; conditions: HK6966/08, 24 h
[45] = test system: Staphylococcus epidermidis; assay: Antibacterial activity against Staphylococcus epidermidis HK6966/08 after 48 hrs by broth microdilution method; type: functional; conditions: HK6966/08, 48 h

COc1ccc(Cn2nnc(-c3cc([N+](=O)[O-])cc([N+](=O)[O-])c3)n2)cc1
> 500 µM: MIC (Enterococcus sp. [15]) | MIC (Enterococcus sp. [16]) | MIC (Escherichia coli [17]) | MIC (Escherichia coli [18]) | MIC (Klebsiella pneumoniae [19]) | MIC (Klebsiella pneumoniae [20]) | MIC (Klebsiella pneumoniae [21]) | MIC (Klebsiella pneumoniae [22]) | MIC (Pseudomonas aeruginosa [23]) | MIC (Pseudomonas aeruginosa [24]) | MIC (Candida albicans [25]) | MIC (Candida albicans [26]) | MIC (Candida tropicalis [27]) | MIC (Candida tropicalis [28]) | MIC (Pichia kudriavzevii [29]) | MIC (Pichia kudriavzevii [30]) | MIC (Nakaseomyces glabratus [31]) | MIC (Nakaseomyces glabratus [32]) | MIC (Trichosporon asahii [33]) | MIC (Trichosporon asahii [34]) | MIC (Aspergillus fumigatus [35]) | MIC (Aspergillus fumigatus [36]) | MIC (Lichtheimia corymbifera [37]) | MIC (Lichtheimia corymbifera [38]) | MIC [39] | MIC [40]
> 100 µM: IC50 (HaCaT)
8 µM: MIC99 (Mycobacterium avium [4])
4 µM: MIC99 (Mycobacterium avium [3])
0.125 µM: MIC99 (Mycobacterium kansasii [5]) | MIC99 (Mycobacterium kansasii [6]) | MIC99 (Mycobacterium kansasii [10])
0.03 µM: MIC99 [1] | MIC99 [2]
> 250 µM: MIC (Staphylococcus aureus [11]) | MIC (Staphylococcus aureus [12])
96 µM: IC50 (CHO-K1)
0.06 µM: MIC99 (Mycobacterium kansasii [8]) | MIC99 (Mycobacterium kansasii [9])
250 µM: MIC (Staphylococcus aureus [13]) | MIC (Staphylococcus aureus [14])
> 1000: selectivity ratio [41] | selectivity ratio [42] | selectivity ratio [43]
0.25 µM: MIC99 (Mycobacterium kansasii [7])

COc1ccc(Cn2nnnc2-c2cc([N+](=O)[O-])cc([N+](=O)[O-])c2)cc1
125 µM: MIC (Escherichia coli [17]) | MIC (Klebsiella pneumoniae [20]) | MIC (Klebsiella pneumoniae [22])
500 µM: MIC (Candida tropicalis [27]) | MIC (Candida tropicalis [28]) | MIC (Nakaseomyces glabratus [31]) | MIC (Nakaseomyces glabratus [32]) | MIC (Trichosporon asahii [33]) | MIC (Trichosporon asahii [34]) | MIC (Aspergillus fumigatus [35]) | MIC (Aspergillus fumigatus [36]) | MIC (Lichtheimia corymbifera [37]) | MIC (Lichtheimia corymbifera [38]) | MIC [39] | MIC [40]
15.6 µM: MIC (Staphylococcus aureus [14])
> 500 µM: MIC (Pseudomonas aeruginosa [23]) | MIC (Pseudomonas aeruginosa [24])
62.5 µM: MIC (Staphylococcus aureus [11]) | MIC (Staphylococcus aureus [12]) | MIC [44] | MIC [45] | MIC (Enterococcus sp. [15]) | MIC (Enterococcus sp. [16]) | MIC (Escherichia coli [18])
31.2 µM: MIC (Staphylococcus aureus [13])
21 µM: IC50 (CHO-K1)
32 µM: MIC99 (Mycobacterium avium [4]) | MIC99 (Mycobacterium kansasii [6]) | MIC99 (Mycobacterium kansasii [7])
8 µM: MIC99 [1] | MIC99 [2] | MIC99 (Mycobacterium kansasii [8]) | MIC99 (Mycobacterium kansasii [9])
16 µM: MIC99 (Mycobacterium avium [3]) | MIC99 (Mycobacterium kansasii [5]) | MIC99 (Mycobacterium kansasii [10])
250 µM: MIC (Klebsiella pneumoniae [19]) | MIC (Klebsiella pneumoniae [21]) | MIC (Candida albicans [25]) | MIC (Candida albicans [26]) | MIC (Pichia kudriavzevii [29]) | MIC (Pichia kudriavzevii [30])
